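Cells were grown in 96-well plates and exposed to each compound for 48 hours at five concentrations; endpoints were interpolated linearly between bracketing concentrations, or set to the highest concentration if not reached. GI50 is the concentration that inhibits growth by half. TGI denotes the concentration required for complete inhibition of growth.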
How the values were obtained:
Experiment in all cases: inhibition of tumour cell growth, NCI panel, 48 h; in the data active means GI50 below about 0.43 µM; inactive means the rest
786-0 renal = tested on: 786-0 renal
DU-145 prostate = tested on: DU-145 prostate
CAKI-1 renal = tested on: CAKI-1 renal
NCI-H226 lung = tested on: NCI-H226 lung
OVCAR-3 ovarian = tested on: OVCAR-3 ovarian
SF-295 CNS = tested on: SF-295 CNS
NCI-H522 lung = tested on: NCI-H522 lung
SNB-19 CNS = tested on: SNB-19 CNS
NCI-H460 lung = tested on: NCI-H460 lung
MALME-3M melanoma = tested on: MALME-3M melanoma
OVCAR-4 ovarian = tested on: OVCAR-4 ovarian
TK-10 renal = tested on: TK-10 renal
PC-3 prostate = tested on: PC-3 prostate
SN12C renal = tested on: SN12C renal
ACHN renal = tested on: ACHN renal
K-562 leukemia = tested on: K-562 leukemia
MDA-MB-231 breast = tested on: MDA-MB-231 breast
EKVX NSCLC = tested on: EKVX NSCLC
M14 melanoma = tested on: M14 melanoma
SK-MEL-5 melanoma = tested on: SK-MEL-5 melanoma
SK-MEL-28 melanoma = tested on: SK-MEL-28 melanoma
UACC-62 melanoma = tested on: UACC-62 melanoma
RXF 393 renal = tested on: RXF 393 renal
KM12 colon = tested on: KM12 colon
SW-620 colon = tested on: SW-620 colon
MCF7 breast = tested on: MCF7 breast
IGROV1 ovarian = tested on: IGROV1 ovarian
OVCAR-5 ovarian = tested on: OVCAR-5 ovarian
UO-31 renal = tested on: UO-31 renal
HT29 colon = tested on: HT29 colon
CCRF-CEM leukemia = tested on: CCRF-CEM leukemia
HOP-62 NSCLC = tested on: HOP-62 NSCLC
HS 578T breast = tested on: HS 578T breast
MOLT-4 leukemia = tested on: MOLT-4 leukemia
HCT-116 colon = tested on: HCT-116 colon
SF-539 CNS = tested on: SF-539 CNS
OVCAR-8 ovarian = tested on: OVCAR-8 ovarian
HCT-15 colon = tested on: HCT-15 colon
U251 CNS = tested on: U251 CNS
HOP-92 NSCLC = tested on: HOP-92 NSCLC
T-47D breast = tested on: T-47D breast
NCI/ADR-RES ovarian = tested on: NCI/ADR-RES ovarian
BT-549 breast = tested on: BT-549 breast
RPMI-8226 leukemia = tested on: RPMI-8226 leukemia
A549 NSCLC = tested on: A549 NSCLC
MDA-MB-435 = tested on: MDA-MB-435
SF-268 CNS = tested on: SF-268 CNS
HL-60(TB) leukemia = tested on: HL-60(TB) leukemia
SK-OV-3 ovarian = tested on: SK-OV-3 ovarian
HCC-2998 colon = tested on: HCC-2998 colon
COLO 205 colon = tested on: COLO 205 colon
LOX IMVI melanoma = tested on: LOX IMVI melanoma
NCI-H23 lung = tested on: NCI-H23 lung
UACC-257 melanoma = tested on: UACC-257 melanoma
A498 renal = tested on: A498 renal
SR leukemia = tested on: SR leukemia
SK-MEL-2 melanoma = tested on: SK-MEL-2 melanoma
SNB-75 CNS = tested on: SNB-75 CNS

COc1cc(O)cc(O)c1C(=O)CC(Cl)(Cl)Cl
> 100 µM: TGI (786-0 renal) | TGI (DU-145 prostate) | TGI (CAKI-1 renal) | TGI (NCI-H226 lung) | TGI (OVCAR-3 ovarian) | TGI (SF-295 CNS) | TGI (NCI-H522 lung) | TGI (SNB-19 CNS) | TGI (NCI-H460 lung) | TGI (MALME-3M melanoma) | TGI (OVCAR-4 ovarian) | TGI (TK-10 renal) | TGI (PC-3 prostate) | TGI (SN12C renal) | TGI (ACHN renal) | TGI (K-562 leukemia) | TGI (MDA-MB-231 breast) | TGI (EKVX NSCLC) | TGI (M14 melanoma) | TGI (SK-MEL-5 melanoma) | TGI (SK-MEL-28 melanoma) | TGI (UACC-62 melanoma) | TGI (RXF 393 renal) | TGI (KM12 colon) | TGI (SW-620 colon) | TGI (MCF7 breast) | TGI (IGROV1 ovarian) | TGI (OVCAR-5 ovarian) | TGI (UO-31 renal) | TGI (HT29 colon) | TGI (CCRF-CEM leukemia) | TGI (HOP-62 NSCLC) | TGI (HS 578T breast) | TGI (MOLT-4 leukemia) | TGI (HCT-116 colon) | TGI (SF-539 CNS) | TGI (OVCAR-8 ovarian) | TGI (HCT-15 colon) | TGI (U251 CNS) | TGI (HOP-92 NSCLC) | TGI (T-47D breast) | TGI (NCI/ADR-RES ovarian) | TGI (BT-549 breast) | TGI (RPMI-8226 leukemia) | TGI (A549 NSCLC) | TGI (MDA-MB-435) | TGI (SF-268 CNS) | TGI (HL-60(TB) leukemia) | TGI (SK-OV-3 ovarian) | TGI (HCC-2998 colon) | TGI (COLO 205 colon) | TGI (LOX IMVI melanoma) | TGI (NCI-H23 lung) | TGI (UACC-257 melanoma) | TGI (A498 renal) | TGI (SR leukemia)

COc1cnc2c(c1)C(=O)c1c-2n(CCCNCCN2CCOCC2)c(=O)c2cc([N+](=O)[O-])ccc12
0.818 µM: TGI (HL-60(TB) leukemia)
14.3 µM: TGI (SK-MEL-28 melanoma)
0.216 µM: TGI (LOX IMVI melanoma)
13.3 µM: TGI (SF-268 CNS) | TGI (UACC-257 melanoma)
0.964 µM: TGI (SF-295 CNS)
2.59 µM: TGI (K-562 leukemia)
1.93 µM: TGI (RXF 393 renal)
2.58 µM: TGI (HCT-15 colon)
active: GI50 (786-0 renal) 0.224 µM | GI50 (DU-145 prostate) 0.0608 µM | GI50 (CAKI-1 renal) 0.0433 µM | GI50 (OVCAR-3 ovarian) 0.315 µM | GI50 (SF-295 CNS) 0.0735 µM | GI50 (NCI-H522 lung) 0.0787 µM | GI50 (SNB-19 CNS) 0.11 µM | GI50 (NCI-H460 lung) 0.0411 µM | GI50 (MALME-3M melanoma) 0.34 µM | GI50 (OVCAR-4 ovarian) 0.334 µM | GI50 (SN12C renal) 0.0795 µM | GI50 (ACHN renal) 0.0365 µM | GI50 (K-562 leukemia) 0.226 µM | GI50 (M14 melanoma) 0.0689 µM | GI50 (SK-MEL-5 melanoma) 0.263 µM | GI50 (UACC-62 melanoma) 0.0438 µM | GI50 (RXF 393 renal) 0.387 µM | GI50 (KM12 colon) 0.399 µM | GI50 (SW-620 colon) 0.128 µM | GI50 (MCF7 breast) 0.0323 µM | GI50 (IGROV1 ovarian) 0.422 µM | GI50 (UO-31 renal) 0.0523 µM | GI50 (HT29 colon) 0.154 µM | GI50 (CCRF-CEM leukemia) 0.0453 µM | GI50 (HOP-62 NSCLC) 0.15 µM | GI50 (MOLT-4 leukemia) 0.0335 µM | GI50 (SF-539 CNS) 0.311 µM | GI50 (OVCAR-8 ovarian) 0.174 µM | GI50 (HCT-15 colon) 0.297 µM | GI50 (U251 CNS) 0.0783 µM | GI50 (T-47D breast) 0.11 µM | GI50 (NCI/ADR-RES ovarian) 0.125 µM | GI50 (BT-549 breast) 0.286 µM | GI50 (RPMI-8226 leukemia) 0.171 µM | GI50 (MDA-MB-435) 0.42 µM | GI50 (SF-268 CNS) 0.0818 µM | GI50 (SNB-75 CNS) 0.265 µM | GI50 (HL-60(TB) leukemia) 0.104 µM | GI50 (SK-OV-3 ovarian) 0.142 µM | GI50 (HCC-2998 colon) 0.303 µM | GI50 (COLO 205 colon) 0.297 µM | GI50 (LOX IMVI melanoma) 0.0413 µM | GI50 (NCI-H23 lung) 0.152 µM | GI50 (SR leukemia) 0.0151 µM
14.4 µM: TGI (SK-MEL-2 melanoma)
3.5 µM: TGI (EKVX NSCLC)
3.87 µM: TGI (OVCAR-5 ovarian)
1.38 µM: TGI (NCI-H522 lung)
18.1 µM: TGI (T-47D breast)
3.44 µM: TGI (OVCAR-4 ovarian)
3.17 µM: TGI (TK-10 renal)
inactive: GI50 (TK-10 renal) 0.73 µM | GI50 (PC-3 prostate) 0.568 µM | GI50 (MDA-MB-231 breast) 0.63 µM | GI50 (EKVX NSCLC) 0.446 µM | GI50 (SK-MEL-28 melanoma) 1.13 µM | GI50 (SK-MEL-2 melanoma) 1.59 µM | GI50 (OVCAR-5 ovarian) 0.448 µM | GI50 (HS 578T breast) 3.85 µM | GI50 (HOP-92 NSCLC) 0.866 µM | GI50 (UACC-257 melanoma) 0.586 µM
2.65 µM: TGI (MDA-MB-231 breast)
22.8 µM: TGI (HOP-92 NSCLC)
1.62 µM: TGI (SK-OV-3 ovarian)
2.86 µM: TGI (MALME-3M melanoma)
1.08 µM: TGI (HOP-62 NSCLC)
1.02 µM: TGI (SR leukemia)
1.71 µM: TGI (OVCAR-3 ovarian)
1.03 µM: TGI (NCI-H460 lung)
0.765 µM: TGI (786-0 renal)
1.45 µM: TGI (NCI/ADR-RES ovarian)
5.2 µM: TGI (SNB-19 CNS)
15.4 µM: TGI (MDA-MB-435)
3.2 µM: TGI (CCRF-CEM leukemia)
1.31 µM: TGI (HT29 colon)
1.52 µM: TGI (M14 melanoma)
10.2 µM: TGI (MCF7 breast) | TGI (OVCAR-8 ovarian)
3.07 µM: TGI (COLO 205 colon)
0.201 µM: TGI (ACHN renal)
4.59 µM: TGI (SN12C renal)
8.68 µM: TGI (SW-620 colon)
1.54 µM: TGI (HCC-2998 colon)
3.57 µM: TGI (KM12 colon)
26.9 µM: TGI (HS 578T breast)
6.76 µM: TGI (IGROV1 ovarian)
10.7 µM: TGI (SNB-75 CNS)
0.269 µM: TGI (MOLT-4 leukemia)
1.1 µM: TGI (U251 CNS)
13 µM: TGI (PC-3 prostate)
1.55 µM: TGI (RPMI-8226 leukemia)
0.434 µM: TGI (UACC-62 melanoma)
4.13 µM: TGI (BT-549 breast)
1.32 µM: TGI (SF-539 CNS)
7.31 µM: TGI (CAKI-1 renal)
1.12 µM: TGI (DU-145 prostate)
1.61 µM: TGI (NCI-H23 lung)
1.26 µM: TGI (SK-MEL-5 melanoma)
